Reference: the NIST ThermoML archive (doi:10.1016/j.tca.2010.08.002)

Key:
[1] = molar heat capacity at constant pressure; conditions: 101.33 kPa, Vacuum adiabatic calorimetry
[2] = for molar entropy: 101.33 kPa, Vacuum adiabatic calorimetry; for Triple point temperature: Adiabatic calorimetry

CCCCn1cc[n+](C)c1.O=S(=O)([O-])C(F)(F)F [1-butyl-3-methylimidazolium trifluoromethanesulfonate]
Conditions | molar entropy, [2] [J/K/mol] | molar heat capacity at constant pressure, [1] [J/K/mol]
5 K, Crystal 2 | 0.4944 | 1.486
10 K, Crystal 2 | 3.77 | 10.2
15 K, Crystal 2 | 10.39 | 23.78
20 K, Crystal 2 | 19.26 | 38.56
25 K, Crystal 2 | 29.42 | 52.98
30 K, Crystal 2 | 40.29 | 66.38
35 K, Crystal 2 | 51.44 | 78.37
40 K, Crystal 2 | 62.61 | 88.95
45 K, Crystal 2 | 73.65 | 98.67
50 K, Crystal 2 | 84.51 | 107.5
55 K, Crystal 2 | 95.14 | 115.5
60 K, Crystal 2 | 105.5 | 123
65 K, Crystal 2 | 115.6 | 130
70 K, Crystal 2 | 125.5 | 136.6
80 K, Crystal 2 | 144.6 | 148.9
90 K, Crystal 2 | 162.8 | 160
100 K, Crystal 2 | 180.2 | 170.5
110 K, Crystal 2 | 196.9 | 180.5
120 K, Crystal 1 | – | 192.4
120 K, Crystal 2 | – | 192.4
130 K, Crystal 1 | 228.7 | 198.6
140 K, Crystal 1 | 243.7 | 206.9
150 K, Crystal 1 | 258.3 | 216.1
160 K, Crystal 1 | 272.5 | 225.6
170 K, Crystal 1 | 286.5 | 235.5
180 K, Crystal 1 | 300.3 | 245.9
190 K, Crystal 1 | 313.8 | 256.7
200 K, Crystal 1 | 327.3 | 267.8
210 K, Crystal 1 | 340.6 | 279.3
220 K, Crystal 1 | 353.9 | 290.9
230 K, Crystal 1 | 367.1 | 302.8
240 K, Crystal 1 | 380.2 | 314.9
250 K, Crystal 1 | 393.3 | 327.1
260 K, Crystal 1 | 406.4 | 339.4
270 K, Crystal 1 | 419.4 | 351.9
280 K, Crystal 1 | 432.5 | 364.5
290 K, Crystal 1 | 445.5 | 377.3
290.98 K, Crystal 1 | 446.8 | 378.5
290.98 K, Liquid | 513.6 | 423.9
298.15 K, Liquid | 523.9 | 427.7
300 K, Liquid | 526.6 | 428.6
310 K, Liquid | 540.7 | 433.9
320 K, Liquid | 554.6 | 439.2
330 K, Liquid | 568.2 | 444.6
340 K, Liquid | 581.5 | 450
350 K, Liquid | 594.7 | 455.4
360 K, Liquid | 607.6 | 460.9
370 K, Liquid | 620.3 | 466.4

[2]
Conditions | Triple point temperature [K]
Crystal 1 | 290.98
Crystal 2 | 120
